Experiments:
Histamine H3 receptor [1] = target: T1, Histamine H3 receptor (Homo sapiens, UniProt Q9Y5N1); assay: Intrinsic activity at human histamine H3 receptor expressed in sf9 cell membrane co-expressing mammalian Galphai2 and Gbeta1gamma2 at 10 uM incubated for 90 mins by [35S]GTPgammaS binding assay relative to histamine; assay type: functional
Histamine H2 receptor [2] = target: T2, Histamine H2 receptor (Homo sapiens, UniProt P25021); assay: Intrinsic activity at human histamine H2 receptor expressed in sf9 cell membrane co-expressing Gsalphas at 10 uM incubated for 90 mins by [35S]GTPgammaS binding assay relative to histamine; assay type: functional
T2 sequence (P25021 whole entry): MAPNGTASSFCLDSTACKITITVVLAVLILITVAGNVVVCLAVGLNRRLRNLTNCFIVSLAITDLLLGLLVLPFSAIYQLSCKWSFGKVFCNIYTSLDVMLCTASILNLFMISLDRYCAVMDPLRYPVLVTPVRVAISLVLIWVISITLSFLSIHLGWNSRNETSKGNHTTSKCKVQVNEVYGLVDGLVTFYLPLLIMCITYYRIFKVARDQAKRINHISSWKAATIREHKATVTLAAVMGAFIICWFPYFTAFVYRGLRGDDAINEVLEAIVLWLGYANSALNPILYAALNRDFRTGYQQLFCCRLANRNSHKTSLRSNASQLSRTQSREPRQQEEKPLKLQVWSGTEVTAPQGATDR

Histamine H3 receptor [3] = target: T1, Histamine H3 receptor; assay: Agonist activity at human histamine H3 receptor expressed in sf9 cell membrane co-expressing mammalian Galphai2 and Gbeta1gamma2 incubated for 90 mins by [35S]GTPgammaS binding assay; assay type: functional
Histamine H3 receptor [4] = target: T1, Histamine H3 receptor; assay: Antagonist activity at human histamine H3 receptor expressed in sf9 cell membrane co-expressing mammalian Galphai2 and Gbeta1gamma2 assessed as inhibition of histamine-induced [35S]GTPgammaS binding incubated for 90 mins; assay type: functional
Histamine H4 receptor [5] = target: T3, Histamine H4 receptor (Homo sapiens, UniProt Q9H3N8); assay: Agonist activity at human histamine H4 receptor expressed in sf9 cell membrane co-expressing mammalian Galphai2 and Gbeta1gamma2 incubated for 90 mins by [35S]GTPgammaS binding assay; assay type: functional
T3 sequence (Q9H3N8 whole entry): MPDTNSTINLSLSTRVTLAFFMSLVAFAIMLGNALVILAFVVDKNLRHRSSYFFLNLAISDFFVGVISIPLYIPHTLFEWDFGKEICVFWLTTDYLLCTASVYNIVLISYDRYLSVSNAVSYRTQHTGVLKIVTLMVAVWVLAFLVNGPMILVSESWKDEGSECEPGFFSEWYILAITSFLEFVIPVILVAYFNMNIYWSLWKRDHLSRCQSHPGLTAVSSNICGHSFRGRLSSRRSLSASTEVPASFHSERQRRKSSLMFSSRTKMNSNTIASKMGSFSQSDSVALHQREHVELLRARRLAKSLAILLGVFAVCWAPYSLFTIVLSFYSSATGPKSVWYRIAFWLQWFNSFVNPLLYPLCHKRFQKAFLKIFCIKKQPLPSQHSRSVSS

Histamine H1 receptor = Histamine H1 receptor (Homo sapiens, UniProt P35367); assay: Displacement of [3H]mepyramine from human histamine H1 receptor expressed in sf9 cell membrane co-expressing RGS4 incubated for 60 mins by liquid scintillation counting method
Sequence of Histamine H1 receptor (P35367 whole entry): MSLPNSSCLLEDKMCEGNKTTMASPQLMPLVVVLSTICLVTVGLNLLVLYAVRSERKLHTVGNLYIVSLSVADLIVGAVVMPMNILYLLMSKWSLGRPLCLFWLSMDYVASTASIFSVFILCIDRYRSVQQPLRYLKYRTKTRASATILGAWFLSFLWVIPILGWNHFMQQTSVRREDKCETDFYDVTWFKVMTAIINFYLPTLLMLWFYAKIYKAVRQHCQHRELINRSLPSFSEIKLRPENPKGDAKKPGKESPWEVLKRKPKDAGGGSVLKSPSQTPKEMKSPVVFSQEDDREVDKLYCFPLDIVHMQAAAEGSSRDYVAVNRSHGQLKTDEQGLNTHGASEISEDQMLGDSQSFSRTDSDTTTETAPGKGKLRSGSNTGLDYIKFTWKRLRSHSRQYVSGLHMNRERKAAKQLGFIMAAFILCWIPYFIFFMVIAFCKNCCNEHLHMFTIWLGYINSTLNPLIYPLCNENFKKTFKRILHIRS

Histamine H3 receptor [6] = target: T1, Histamine H3 receptor; assay: Displacement of [3H]N-alpha-methylhistamine from human histamine H3 receptor expressed in sf9 cell membrane co-expressing mammalian Galphai2 and Gbeta1gamma2 incubated for 60 mins by liquid scintillation counting method
Histamine H4 receptor [7] = target: T3, Histamine H4 receptor; assay: Displacement of [3H]UR-PI294 from human histamine H4 receptor expressed in sf9 cell membrane co-expressing mammalian Galphai2 and Gbeta1gamma2 incubated for 60 mins by liquid scintillation counting method
Histamine H2 receptor [8] = target: T2, Histamine H2 receptor; assay: Antagonist activity at human histamine H2 receptor expressed in sf9 cell membrane co-expressing Gsalphas assessed as inhibition of histamine-induced [35S]GTPgammaS binding incubated for 90 mins; assay type: functional
Histamine H2 receptor [9] = target: T2, Histamine H2 receptor; assay: Displacement of [3H]tiotidine from human histamine H2 receptor expressed in sf9 cell membrane co-expressing Gsalphas incubated for 60 mins by liquid scintillation counting method
[10] = target: T4, Histamine H4 receptor (Mus musculus) (UniProt Q91ZY2); assay: Intrinsic activity at mouse SF-His6-tagged histamine H4 receptor expressed in HEK293 cells assessed as inhibition of forskolin-stimulated response incubated for 5 hrs by luciferase reporter gene assay relative to histamine; assay type: cell-based
T4 sequence (whole entry): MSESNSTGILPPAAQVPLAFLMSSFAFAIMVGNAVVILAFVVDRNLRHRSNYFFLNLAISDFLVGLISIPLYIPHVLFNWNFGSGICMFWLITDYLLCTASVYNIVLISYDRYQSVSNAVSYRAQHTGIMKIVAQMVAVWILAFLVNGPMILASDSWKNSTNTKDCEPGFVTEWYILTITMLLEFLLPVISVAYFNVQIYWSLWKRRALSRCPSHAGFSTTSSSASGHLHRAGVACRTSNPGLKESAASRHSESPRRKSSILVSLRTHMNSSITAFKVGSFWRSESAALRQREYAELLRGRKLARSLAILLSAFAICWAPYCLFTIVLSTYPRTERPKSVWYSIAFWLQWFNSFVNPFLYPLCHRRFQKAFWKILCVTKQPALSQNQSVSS

T1 sequence (Q9Y5N1 whole entry): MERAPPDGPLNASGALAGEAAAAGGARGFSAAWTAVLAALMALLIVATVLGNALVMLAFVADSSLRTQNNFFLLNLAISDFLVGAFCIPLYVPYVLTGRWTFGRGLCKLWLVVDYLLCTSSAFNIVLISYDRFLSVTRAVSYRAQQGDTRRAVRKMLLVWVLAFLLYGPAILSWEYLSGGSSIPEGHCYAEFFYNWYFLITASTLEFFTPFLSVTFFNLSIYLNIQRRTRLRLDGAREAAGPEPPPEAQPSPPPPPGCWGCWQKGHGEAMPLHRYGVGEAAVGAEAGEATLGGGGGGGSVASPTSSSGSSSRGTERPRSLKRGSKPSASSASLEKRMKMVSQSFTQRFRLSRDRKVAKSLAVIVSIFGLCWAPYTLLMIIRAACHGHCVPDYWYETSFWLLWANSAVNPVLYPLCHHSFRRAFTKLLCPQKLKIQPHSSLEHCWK

Structure (SMILES)	Intrinsic activity (Histamine H3 receptor [1])	Intrinsic activity (Histamine H2 receptor [2])	EC50 (Histamine H3 receptor [3]) [µM]	Kb (Histamine H3 receptor [4]) [µM]	EC50 (Histamine H4 receptor [5]) [µM]	Ki (Histamine H1 receptor) [µM]	Ki (Histamine H3 receptor [6]) [µM]	Ki (Histamine H4 receptor [7]) [µM]	Kb (Histamine H2 receptor [8]) [µM]	Ki (Histamine H2 receptor [9]) [µM]	Ki (Histamine H1 receptor; sf9) [µM]	Intrinsic activity [10]
N#C/N=C(/NCCCCc1c[nH]cn1)NCCSc1ccccc1	-0.52	0	0.72									
N#C/N=C(/NCCSc1ccccc1)N[C@H]1CC[C@@H](c2c[nH]cn2)CC1				1.9	0.11							
N#C/N=C(/NCCSc1ccccc1)NC[C@H]1CC[C@@H](c2c[nH]cn2)C1	-0.34	0		0.528	0.549	6.78	0.745	0.29	> 10	7.36		
N#C/N=C(/NCCSc1ccccc1)NC[C@@H]1CC[C@H](c2c[nH]cn2)C1 [listing 1 of 2 here]					0.293	3.05	0.87	0.18		7.25		
CN/C(=N\C#N)NC[C@H]1CC[C@@H](c2c[nH]cn2)C1	-0.14	0		2.81	2.68	> 10	9.5	3.5	> 10	> 10		
CN/C(=N\C#N)NC[C@@H]1CC[C@H](c2c[nH]cn2)C1 [listing 1 of 2 here]			0.212		0.119		0.48	0.12		> 10	> 10	
CCC(=O)/N=C(\N)NCCCc1c[nH]cn1	0.4	0.8										
CN/C(=N\C#N)NC[C@@H]1CC[C@H](c2c[nH]cn2)C1 [listing 2 of 2 here]	0.61	0							> 10			
CN/C(=N\C#N)NC[C@H]1CC[C@H](c2c[nH]cn2)C1	0.59	0							> 10			0.96
CN1CCN(C(=O)c2cc3cc(Cl)ccc3[nH]2)CC1	-0.56											
N#C/N=C(/NCCSc1ccccc1)NC[C@@H]1CC[C@H](c2c[nH]cn2)C1 [listing 2 of 2 here]	-0.21	0		0.718					> 10			
N#C/N=C(/NCCSc1ccccc1)NC[C@H]1CC[C@H](c2c[nH]cn2)C1	0	0		1.15					> 10			0.67
N#C/N=C(/NCCSc1ccccc1)N[C@H]1CC[C@H](c2c[nH]cn2)CC1				0.18								
S=C(NC1CCCCC1)N1CCC(c2cnc[nH]2)CC1	-0.59											
N#C/N=C(\NC[C@H]1CC[C@H](c2c[nH]cn2)C1)NC1CC1 (racemic)	0.36	0	> 10		0.23	> 10			> 10			
N#C/N=C(/NCCOc1ccccc1)NC[C@H]1CC[C@H](c2c[nH]cn2)C1 (racemic)	0	0		0.54	0.524	> 10			> 10			

Structure (SMILES)	Intrinsic activity (Histamine H3 receptor [1])	Intrinsic activity (Histamine H2 receptor [2])	EC50 (Histamine H3 receptor [3]) [µM]	Kb (Histamine H3 receptor [4]) [µM]	EC50 (Histamine H4 receptor [5]) [µM]	Ki (Histamine H1 receptor) [µM]	Ki (Histamine H3 receptor [6]) [µM]	Ki (Histamine H4 receptor [7]) [µM]	Kb (Histamine H2 receptor [8]) [µM]	Ki (Histamine H2 receptor [9]) [µM]	Ki (Histamine H1 receptor; sf9) [µM]	Intrinsic activity [10]
CN/C(=N\C#N)NC[C@H]1CC[C@H](c2c[nH]cn2)C1 (racemic) [listing 1 of 2 here]			0.37		0.206	> 10	0.83	0.24				
CC(C)CN/C(=N/C#N)NC[C@@H]1CC[C@H](c2c[nH]cn2)C1 (racemic)	0.5	0	0.858		0.202	8.35			> 10			
N#C/N=C(/NCCNc1ccccc1)NC[C@@H]1CC[C@H](c2c[nH]cn2)C1 (racemic)	0	0		0.402		> 10			> 10			
N#C/N=C(/NCCNc1ccccc1)NC[C@H]1CC[C@H](c2c[nH]cn2)C1 (racemic)	0	0		0.408		> 10			> 10			
N#C/N=C(/NCCSc1ccccc1)NC[C@H]1CC[C@H](c2c[nH]cn2)C1 (racemic)					0.014	6.08	1.23	0.099				
N#C/N=C(/NCCCc1ccccc1)NC[C@@H]1CC[C@H](c2c[nH]cn2)C1 (racemic)	0	0		0.07	0.372	9.35			> 10			
N#C/N=C(/NCCOc1ccccc1)NC[C@@H]1CC[C@H](c2c[nH]cn2)C1 (racemic)	0	0		0.328		> 10			> 10			
N#C/N=C(/NCCSc1ccccc1)NC[C@@H]1CC[C@H](c2c[nH]cn2)C1 (racemic)					0.129	3.8	1.35	0.25				
N#C/N=C(/NCCCc1ccccc1)NC[C@H]1CC[C@H](c2c[nH]cn2)C1 (racemic)	-0.19	0		0.325	0.125	> 10			> 10			
N#C/N=C(\NC[C@@H]1CC[C@H](c2c[nH]cn2)C1)NC1CC1 (racemic)	0.28	0	1.53		0.245	> 10			> 10			
CN/C(=N\C#N)NC[C@@H]1CC[C@H](c2c[nH]cn2)C1 (racemic) [listing 1 of 2 here]			0.547		0.111	> 10	0.86	0.155				
CC(C)CN/C(=N/C#N)NC[C@H]1CC[C@H](c2c[nH]cn2)C1 (racemic)	0.54	0	0.578		0.015	8.75			> 10			
CN/C(=N\C#N)NC[C@@H]1CC[C@H](c2c[nH]cn2)C1 (racemic) [listing 2 of 2 here]	0.51	0							> 10			
CN/C(=N\C#N)NC[C@H]1CC[C@H](c2c[nH]cn2)C1 (racemic) [listing 2 of 2 here]	-0.46	0							> 10			
Cc1nc[nH]c1CCN [4-METHYLHISTAMINE]	0.7	1	12.4									
